Results as given in patent US11149037B2, “Pyrazole MAGL inhibitors” (H. Lundbeck A/S, priority 2017, dated 2021).

What was measured:
Assay type in all cases: biochemical
MAGL [1] = molecular target: MAGL (Mus musculus (Mouse), UniProt O35678); assay: In vitro competitive activity-based protein profiling, mouse proteomes (brain membrane fraction or cell lysates); conditions: mouse proteome, read-out: MAGL % inh. 1 μM (mouse)
Procedure, shortened: (§1)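 Activity of MAGL and FAAH was quantified from fluorescent gel band intensities. Beforehand, inhibitors at several concentrations competed against subsequent probe labelling (FP-Rh, JW912 or HT-01) in species-matched proteomes, each step 30 min at 37° C.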

FAAH [2] = molecular target: FAAH (Mus musculus (Mouse), UniProt O08914); assay: as above; conditions: mouse proteome, read-out: FAAH % inh. 1 μM (mouse)
Chain of FAAH (Mus musculus (Mouse), UniProt O08914) (O08914 whole entry): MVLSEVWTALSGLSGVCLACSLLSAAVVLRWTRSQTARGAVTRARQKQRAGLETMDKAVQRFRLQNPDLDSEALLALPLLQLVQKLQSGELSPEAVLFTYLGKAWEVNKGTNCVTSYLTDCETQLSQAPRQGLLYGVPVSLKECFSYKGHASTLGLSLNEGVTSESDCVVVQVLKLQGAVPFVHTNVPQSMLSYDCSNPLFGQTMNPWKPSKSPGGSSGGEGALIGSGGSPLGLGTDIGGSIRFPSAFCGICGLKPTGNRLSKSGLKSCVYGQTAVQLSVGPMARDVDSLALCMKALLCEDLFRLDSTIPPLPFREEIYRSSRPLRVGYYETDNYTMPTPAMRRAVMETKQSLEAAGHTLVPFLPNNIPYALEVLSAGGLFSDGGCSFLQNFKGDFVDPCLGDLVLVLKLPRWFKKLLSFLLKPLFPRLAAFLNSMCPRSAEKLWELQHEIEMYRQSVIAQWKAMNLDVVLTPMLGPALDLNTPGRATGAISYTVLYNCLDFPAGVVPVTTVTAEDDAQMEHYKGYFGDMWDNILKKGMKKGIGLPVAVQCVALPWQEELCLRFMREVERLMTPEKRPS
Procedure, shortened: as §1

MAGL [3] = molecular target: MAGL (Homo sapiens (Human), UniProt Q99685); assay: In vitro competitive activity-based protein profiling, human proteomes (prefrontal cortex or PC3 cell membrane fractions); conditions: human proteome; for inhibition at 1 µM: read-out: MAGL % inh. 1 μM (human)
Chain of MAGL (Homo sapiens (Human), UniProt Q99685) (Q99685 whole entry): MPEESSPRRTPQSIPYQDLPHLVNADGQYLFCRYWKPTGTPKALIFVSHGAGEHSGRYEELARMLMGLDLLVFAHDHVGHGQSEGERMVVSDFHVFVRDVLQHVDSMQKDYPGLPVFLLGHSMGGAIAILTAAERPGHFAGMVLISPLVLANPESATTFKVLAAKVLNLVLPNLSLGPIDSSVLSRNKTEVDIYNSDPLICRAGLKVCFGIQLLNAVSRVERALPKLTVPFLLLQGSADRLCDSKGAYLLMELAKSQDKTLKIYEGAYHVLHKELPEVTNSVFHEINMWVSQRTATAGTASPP
Procedure, shortened: as §1

FAAH [4] = molecular target: FAAH (Homo sapiens (Human), UniProt O00519); assay: as above; conditions: human proteome; for inhibition at 1 µM: read-out: FAAH % inh. 1 μM (human)
Chain of FAAH (Homo sapiens (Human), UniProt O00519) (O00519 whole entry): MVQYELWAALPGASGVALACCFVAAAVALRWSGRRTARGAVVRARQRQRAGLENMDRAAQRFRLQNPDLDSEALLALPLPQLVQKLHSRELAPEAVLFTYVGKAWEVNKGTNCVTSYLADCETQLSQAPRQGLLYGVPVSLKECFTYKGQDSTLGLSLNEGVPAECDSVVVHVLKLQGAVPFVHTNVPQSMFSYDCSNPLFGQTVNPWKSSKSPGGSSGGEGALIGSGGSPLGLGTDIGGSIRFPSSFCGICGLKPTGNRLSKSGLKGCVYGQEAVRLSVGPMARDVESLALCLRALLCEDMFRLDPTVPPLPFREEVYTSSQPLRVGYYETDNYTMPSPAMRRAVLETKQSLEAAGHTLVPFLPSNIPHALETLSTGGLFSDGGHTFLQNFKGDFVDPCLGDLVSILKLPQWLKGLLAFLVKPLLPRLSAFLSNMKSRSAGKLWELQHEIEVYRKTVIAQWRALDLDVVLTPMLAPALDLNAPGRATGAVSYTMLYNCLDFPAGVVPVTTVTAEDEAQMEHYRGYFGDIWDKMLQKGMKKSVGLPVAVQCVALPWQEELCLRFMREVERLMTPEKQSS
Procedure, shortened: as §1

Chain of MAGL (Mus musculus (Mouse), UniProt O35678) (O35678 whole entry): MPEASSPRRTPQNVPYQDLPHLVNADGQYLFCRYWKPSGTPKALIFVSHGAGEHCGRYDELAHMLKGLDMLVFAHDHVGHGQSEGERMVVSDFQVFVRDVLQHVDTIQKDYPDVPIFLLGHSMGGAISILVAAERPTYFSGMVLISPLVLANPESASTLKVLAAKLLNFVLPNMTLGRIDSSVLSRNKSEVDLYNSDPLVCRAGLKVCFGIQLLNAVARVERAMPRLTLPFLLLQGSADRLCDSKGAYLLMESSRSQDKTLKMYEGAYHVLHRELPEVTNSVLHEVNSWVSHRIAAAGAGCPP

inhibition at 1 µM (MAGL [1]) [%] | inhibition at 1 µM (FAAH [2]) [%] | inhibition at 1 µM (MAGL [3]) [%] | inhibition at 1 µM (FAAH [4]) [%] | IC50 (MAGL [3]) [µM] | IC50 (FAAH [4]) [µM] | Structure (SMILES)
50 to 75 | 0 to 25 | > 75 | 0 to 25 |  |  | CCN1CC2CN(c3cc(CN4CCN(C(=O)n5ccc(NS(C)(=O)=O)n5)CC4)ccc3Cl)CC2C1 (centres unmarked) [Example 153, N-(1-(4-(4-Chloro-3-(5-ethylhexahydropyrrolo[3,4-c]pyrrol-2(1H)-yl)benzyl)piperazine-1-carbonyl)-1H-pyrazol-3-yl)methanesulfonamide]
> 75 | 0 to 25 | > 75 | 0 to 25 |  |  | CN(c1ccc(C(F)(F)F)cc1N1CCCC1)C1CCN(C(=O)n2ccc(NS(C)(=O)=O)n2)CC1 [Example 19, N-(1-(4-(methyl(2-(pyrrolidin-1-yl)-4-(trifluoromethyl)phenyl)amino)piperidine-1-carbonyl)-1H-pyrazol-3-yl)methanesulfonamide]
> 75 | 0 to 25 | > 75 | 0 to 25 |  |  | CC(=O)Nc1ccn(C(=O)N2CCN(Cc3cccc(C(F)(F)F)c3)CC2)n1 [Example 127, N-(1-(4-(3-(Trifluoromethyl)benzyl)piperazine-1-carbonyl)-1H-pyrazol-3-yl)acetamide]
> 75 | > 75 | > 75 | > 75 | < 0.1 | 0.1 to 1 | CC(=O)Nc1ccn(C(=O)N2CC3CN(Cc4ccc(N5CCCC5)cc4C(F)(F)F)CC3C2)n1 (centres unmarked) [Example 121, N-(1-(5-(4-(Pyrrolidin-1-yl)-2-(trifluoromethyl)benzyl)octahydropyrrolo[3,4-c]pyrrole-2-carbonyl)-1H-pyrazol-3-yl)acetamide]
> 75 | 0 to 25 | > 75 | 0 to 25 |  |  | CN(Cc1ccc(C(F)(F)F)c(N2CCC(F)CC2)c1)C1(C)CCN(C(=O)n2ccc(NS(C)(=O)=O)n2)CC1 [Example 2, N-(1-(4-((3-(4-fluoropiperidin-1-yl)-4-(trifluoromethyl)benzyl)(methyl)amino)-4-methylpiperidine-1-carbonyl)-1H-pyrazol-3-yl)methanesulfonamide]
> 75 | 0 to 25 | > 75 | 0 to 25 |  |  | CC(=O)Nc1ccn(C(=O)N2CC3CN(Cc4ccc(C(N)=O)c(C(F)(F)F)c4)CC3C2)n1 (centres unmarked) [Example 124, 4-((5-(3-Acetamido-1H-pyrazole-1-carbonyl)hexahydropyrrolo[3,4-c]pyrrol-2(1H)-yl)methyl)-2-(trifluoromethyl)benzamide]
> 75 | 50 to 75 | > 75 | 25 to 50 |  |  | CN(Cc1ccc(C(F)(F)F)nc1N1CCCC1)C1(C)CCN(C(=O)n2ccc(NS(C)(=O)=O)n2)CC1 [Example 91, N-(1-(4-Methyl-4-(methyl((2-(pyrrolidin-1-yl)-6-(trifluoromethyl)pyridin-3-yl)methyl)amino)piperidine-1-carbonyl)-1H-pyrazol-3-yl)methanesulfonamide]
> 75 | > 75 |  |  | < 0.1 | 0.1 to 1 | CC(=O)Nc1ccn(C(=O)N2CC3CN(Cc4cc(Cl)cc(N5CCCC5)c4)CC3C2)n1 (centres unmarked) [Example 172, N-(1-(5-(3-Chloro-5-(pyrrolidin-1-yl)benzyl)octahydropyrrolo[3,4-c]pyrrole-2-carbonyl)-1H-pyrazol-3-yl)acetamide]
> 75 | 0 to 25 | > 75 | 0 to 25 |  |  | Cc1cc(CN2CCCC23CCN(C(=O)n2ccc(NC(=O)C4CC4)n2)CC3)ccc1Cl [Example 83, N-(1-(1-(4-Chloro-3-methylbenzyl)-1,8-diazaspiro[4.5]decane-8-carbonyl)-1H-pyrazol-3-yl)cyclopropanecarboxamide]
> 75 | 0 to 25 | > 75 | 0 to 25 |  |  | CS(=O)(=O)Nc1ccn(C(=O)N2CC3CN(Cc4ccc(C(F)(F)F)cc4NCCCC(=O)O)CC3C2)n1 (centres unmarked) [Example 78, 4-((2-((5-(3-(Methylsulfonamido)-1H-pyrazole-1-carbonyl)hexahydropyrrolo[3,4-c]pyrrol-2(1H)-yl)methyl)-5-(trifluoromethyl)phenyl)amino)butanoic acid]

Continued, compound first:

Structure (SMILES) | inhibition at 1 µM (MAGL [1]) [%] | inhibition at 1 µM (FAAH [2]) [%] | inhibition at 1 µM (MAGL [3]) [%] | inhibition at 1 µM (FAAH [4]) [%] | IC50 (MAGL [3]) [µM] | IC50 (FAAH [4]) [µM]
CS(=O)(=O)Nc1ccn(C(=O)N2CCN(Cc3ccc(Cl)c(N4CC5(CCOCC5)C4)c3)CC2)n1 [Example 8, N-(1-(4-(4-chloro-3-(7-oxa-2-azaspiro[3.5]nonan-2-yl)benzyl)piperazine-1-carbonyl)-1H-pyrazol-3-yl)methanesulfonamide] | > 75 | 0 to 25 | > 75 | 0 to 25 |  | 
C[C@H]1CN(C(=O)n2ccc(NS(C)(=O)=O)n2)CCN1Cc1cnc(Cl)c(N2CCC(F)CC2)c1 [Example 31, (S)—N-(1-(4-((6-chloro-5-(4-fluoropiperidin-1-yl)pyridin-3-yl)methyl)-3-methylpiperazine-1-carbonyl)-1H-pyrazol-3-yl)methanesulfonamide] | > 75 | 0 to 25 | > 75 | 0 to 25 |  | 
CS(=O)(=O)Nc1ccn(C(=O)N2CCC3(CCN(Cc4ccc(C(F)(F)F)cc4N4C5CCC4COC5)C3)CC2)n1 [Example 74, N-(1-(2-(2-(3-Oxa-8-azabicyclo[3.2.1]octan-8-yl)-4-(trifluoromethyl)benzyl)-2,8-diazaspiro[4.5]decane-8-carbonyl)-1H-pyrazol-3-yl)methanesulfonamide] | > 75 | 0 to 25 | > 75 | 0 to 25 | < 0.1 | 1 to 10
CS(=O)(=O)Nc1ccn(C(=O)N2CCC(Oc3cccc(C(F)(F)F)c3-c3nnco3)CC2)n1 [Example 7, N-(1-(4-(2-(1,3,4-oxadiazol-2-yl)-3-(trifluoromethyl)phenoxy)piperidine-1-carbonyl)-1H-pyrazol-3-yl)methanesulfonamide] | > 75 | 0 to 25 | > 75 | 0 to 25 |  | 
CN(Cc1ccc(Cl)c(N2CC3COCC3C2)c1)C1(C)CCN(C(=O)n2ccc(NS(C)(=O)=O)n2)CC1 (centres unmarked) [Example 26, N-(1-(4-((4-Chloro-3-(tetrahydro-1H-furo[3,4-c]pyrrol-5(3H)-yl)benzyl)(methyl)amino)-4-methylpiperidine-1-carbonyl)-1H-pyrazol-3-yl)methanesulfonamide] | 0 to 25 | 0 to 25 | > 75 | 0 to 25 |  | 
CS(=O)(=O)Nc1ccn(C(=O)N2CCN(Cc3cc4cc(F)ccc4[nH]3)CC2)n1 [Example 107, N-(1-(4-((5-Fluoro-1H-indol-2-yl)methyl)piperazine-1-carbonyl)-1H-pyrazol-3-yl)methanesulfonamide] | > 75 | 0 to 25 | > 75 | 0 to 25 |  | 
CS(=O)(=O)Nc1ccn(C(=O)N2CCN(Cc3cccc(Oc4ccc(Cl)cc4)c3)CC2)n1 [Example 149, N-(1-(4-(3-(4-Chlorophenoxy)benzyl)piperazine-1-carbonyl)-1H-pyrazol-3-yl)methanesulfonamide] | > 75 | > 75 | > 75 | > 75 | < 0.1 | 0.1 to 1
CS(=O)(=O)Nc1ccn(C(=O)N2CCC(Oc3ccc(C(F)(F)F)cc3-c3nccs3)CC2)n1 [Example 15, N-(1-(4-(2-(thiazol-2-yl)-4-(trifluoromethyl)phenoxy)piperidine-1-carbonyl)-1H-pyrazol-3-yl)methanesulfonamide] | > 75 | 25 to 50 | > 75 | 0 to 25 |  | 
CS(=O)(=O)Nc1ccn(C(=O)N2CCN(Cc3ccc(C(F)(F)F)c(-c4nnco4)c3)CC2)n1 [Example 116, N-(1-(4-(3-(1,3,4-Oxadiazol-2-yl)-4-(trifluoromethyl)benzyl)piperazine-1-carbonyl)-1H-pyrazol-3-yl)methanesulfonamide] | 50 to 75 | 0 to 25 | > 75 | 0 to 25 |  | 
CS(=O)(=O)Nc1ccn(C(=O)N2CCC3(CCN(Cc4ccccc4Cl)C3)CC2)n1 [Example 162, N-(1-(2-(2-Chlorobenzyl)-2,8-diazaspiro[4.5]decane-8-carbonyl)-1H-pyrazol-3-yl)methanesulfonamide] | 0 to 25 | 0 to 25 | > 75 | 0 to 25 |  | 
CC(=O)Nc1ccn(C(=O)N2CCC3(CCCN3C(=O)c3ccc(C#N)c(C)c3)CC2)n1 [Example 85, N-(1-(1-(4-Cyano-3-methylbenzoyl)-1,8-diazaspiro[4.5]decane-8-carbonyl)-1H-pyrazol-3-yl)acetamide] | > 75 | 0 to 25 | > 75 | 0 to 25 |  | 
CS(=O)(=O)Nc1ccn(C(=O)N2CCN(Cc3cc4ccccc4s3)CC2)n1 [Example 54, N-(1-(4-(Benzo[b]thiophen-2-ylmethyl)piperazine-1-carbonyl)-1H-pyrazol-3-yl)methanesulfonamide] | > 75 | 0 to 25 | > 75 | 0 to 25 |  | 
CS(=O)(=O)Nc1ccn(C(=O)N2CCN(Cc3cc4cc(Cl)ccc4s3)CC2)n1 [Example 66, N-(1-(4-((5-Chlorobenzo[b]thiophen-2-yl)methyl)piperazine-1-carbonyl)-1H-pyrazol-3-yl)methanesulfonamide] | > 75 | 0 to 25 | > 75 | 0 to 25 |  | 
